{
  "source": "patent US20200383964A1",
  "about": "“MITOCHONDRIA TARGETING, MPTP REGULATION, AND THE REDUCTION OF MITOCHONDRIAL REACTIVE SPECIES” (priority 2017, published 2020)",
  "origin": "cited, not measured here",
  "test_system": "mitochondrial permeability transition pore (MPTP)",
  "data": [
    {"smiles": "CC(=O)C=O", "note": "[Methylglyoxal, methylglyoxal]", "values": [
      {"measurement": "suppression of permeability transition", "setting": "incubation with isolated mitochondria, covalent binding to the MPTP", "result": "complete suppression"},
      {"measurement": "time to suppression of the permeability transition", "setting": "isolated mitochondria", "result": "≤ 5", "unit": "min"}
    ]}
  ]
}
